# Columns and labels:
# [1] = system: U937 (human leukaemia cells); experiment: Antiproliferative activity (CCK-8 assay); format: cell-based; conditions: U-937, mean ± SD, three separated experiments, 72 h
# Procedure: MCF-7, MGC-803, Hela and HepG-2 cell lines were cultured in a base medium (90% DMEM and 10% FBS), A549 and U937 were cultured in a base medium (90% PRMI-1640 and 10% FBS) at 37 °C, 5% CO2 and a saturated humidity atmosphere. All the mediums were supplemented with 10% FBS and 1% […]/streptomycin (all cells were purchased from Shanghai Institutes for Biological Sciences, Chinese Academy of Sciences, Shanghai, China).
# MGC-803 cells were collected and seeded into 96 well plates at a density of 8000/well. The mediums containing drugs and cell suspension were added into the well. The cells were incubated in 5% CO2 incubator at 37 °C for 72 h. Each well was added 10 µL CCK8 solution, and the incubation time was 3–4 h. The absorbance value at 450 nm was measured by microplate reader. Data are calculated with GraphPad Prism5 software.
# [2] = system: 293 T (human embryonic kidney cell); experiment: Growth inhibition of normal human cells; format: cell-based; conditions: HEK-293T, triplicate, mean ± SD
# Procedure: (§1) The effect of compound 4c on three types of normal human cell lines including LO2 (human hepatocyte cells), 293 T (human embryonic kidney cell) and THP-1-derived macrophages was then determined.
# [3] = system: LO2 (human hepatocyte cells); experiment: Growth inhibition of normal human cells; format: cell-based; conditions: triplicate, mean ± SD
# Procedure: as §1
# [4] = system: THP-1-derived macrophages; experiment: Growth inhibition of normal human cells; format: cell-based; conditions: Macrophage, triplicate, mean ± SD
# Procedure: as §1
# [5] = system: tubulin; experiment: Tubulin polymerisation assay in vitro; format: biochemical; conditions: 6 µM of 4c; colchicine 4 µM as positive control; fluorescence intensity
# Procedure: The microtubule kinetic experiments were performed with 4 µM of colchicine as a positive control and 6 µM of 4c as the experimental group according to the method originally described by J. M. Andreu et al. with some modifications. Purified and unpolymerised tubulin was incubated with the tested compounds and the increased tendency of fluorescence intensity shown in control samples was obviously slowed down.
# [6] = system: p-Cdc2, CyclinB1 and P21 in MGC-803 cells; experiment: Western blot of G2/M regulatory proteins; format: cell-based, human; conditions: 18, 36, 72 nM, 48 h
# Text: Cdc2 kinase, a member of Ser/Thr protein family, is considered as a driving force of G2/M transition. Activation of Cdc2 catalysed the phosphorylation of a variety of substrate proteins, thus promoting cell transition from G2 phase to M phase. Cyclin B1 plays a vital role to control cell transition from G2 to M phase. P21 also effectively regulates cell cycle progress by increasing the intracellular G2/M phase ratio. Therefore, the expression of cell cycle checkpoint protein was investigated.
# The protein levels in MGC-803 cells were assessed via western blot analysis. Exponentially growing MGC-803 cells were seeded at a density of 6 × 10^5/dishes and incubated overnight. Then 18, 36, 72nΜ of 4c were added in triplicate for 48 h incubation. After the cells were washed with cold PBS, the supernatant was removed. The supernatant was collected by centrifuging at 12,000 g for 10 min at 4 °C. The protein concentration in the supernatant was determined by using a BSA protein assay kit. Samples were prepared in SDS-PAGE loading buffer after BSA analysis to quantify proteins, then boiled for 10 min at 100 °C. Western blot analyses were conducted after separation by SDS-PAGE electrophoresis and transfer to nitrocellulose filter (NC) membranes. Immunoblotting was performed according to the antibody manufacturers’ recommendations.
# [7] = system: MGC-803 cells; experiment: Cell apoptosis assay (Annexin V/PI, flow cytometry); format: cell-based, human; conditions: 48 h, control 1.99%
# Procedure: According to above-mentioned cell cycle analysis, we suppose that 4c might induce cells apoptosis, like other microtubule polymerisation inhibitors. Thus, the effects of 4c on MGC-803 cell apoptosis were examined by flow cytometry.
# MGC-803 cells at 8 × 10^4 cells/well were seeded in 12-well cell culture plates overnight, and then the cultured cells were incubated with a dose range of compounds 4c for 48 h. The treated or untreated cells were washed twice with PBS and stained by Annexin V-PE and PI for 15 min without light exposure according to the manufacturer’s protocol. Apoptosis was quantified using a flow cytometer (Becton, Dickinson and Company, USA).
# [8] = system: ROS in MGC-803 cells; experiment: Intracellular ROS generation (DCFH-DA, flow cytometry); format: cell-based, human; conditions: 72 nM, 48 h, control 0.17%
# Procedure: It is now generally accepted that mitochondrial dysfunction is the main source of elevated ROS levels, accompanied by changes in mitochondrial membrane potential and activation of downstream Caspases. To further evaluate the alterations of intracellular ROS levels after cells exposed to 4c, flow cytometry was analysed with 2′,7′-Dichlorodihydrofluorescein diacetate (DCFH-DA) as fluorescent probe. As shown in Figure 7(B), 4c induced intracellular ROS generation in a dose-dependent manner. […] According to above-mentioned results, we can deduce that 4c induced cell apoptosis through a variety of ways including the disruption of the mitochondrial membrane potential, accumulation of intracellular ROS level and regulation of apoptosis-related proteins expression in cancer cells.
# Load the probe and dilute DCFH-DA with serum-free culture medium at 1:1000 to a final concentration of […]. Spread the cultured cells in a 6-well plate with about 1.5 × 10^5 cells per well and incubate overnight at 37 °C. After 48 h of incubation with 4c (18, 36, 72nΜ) the cell culture medium was removed and diluted DCFH-DA was added and incubated for 20 min at 37 °C in an incubator, and the mixture was inverted every 3–5 min. […] Add 200 μL of PBS for resuspension, place on ice, and subsequently assay by flow cytometry using standard procedures.
# [9] = system: Tg(flk1: EGFP) zebrafish embryos; experiment: Zebrafish angiogenesis assay; format: in vivo
# Procedure: Since zebrafish embryos emerged as a powerful model for studying human diseases, the transgenic zebrafish with green fluorescent protein (GFP) labelled endothelial cells have been used extensively for testing angiogenesis in vivo. In this work, an anti-angiogenetic activity of 4c was confirmed by Tg(flk1: EGFP) zebrafish embryos in vivo assay. Fluorescently labelled 3hpf period embryos were treated with different doses of 4c and incubated at 28.5 °C. Until 30hpf, zebrafish was imaged under a fluorescent microscopy to observe the affection of applied agents on intersegmental vessels (ISVs) development. As shown in the Figure 11, ISVs were clearly observed in newly born zebrafish embryos of solvent-treated control group, which were growing at regular longitudinal and equidistant intervals.
# The transgenic flk: enhanced GFP zebrafish embryos were transferred into 6-well plates (n = 30 per well) with 1 ml of aquaculture water (0.2 g/L of Instant Ocean Salt in distilled water) and raised at 28 °C. Then the embryos dechorionated at 12 h post fertilisation (hpf) was treated with the indicated concentrations of 4c or vehicle (DMSO). About 30 embryos were screened for each concentration gradient. At 30hpf, the zebrafish embryos were stripped, anaesthetised, and fixed with agarose gel. The images were taken under the microscope, and the number of blood vessels between the segments was recorded. Results were obtained from three independent determinations and presented as mean ± SD.
smiles,measurement,setting,value
"COc1cc(C(=O)/C(F)=C/c2c[nH]c3cc(Br)ccc23)cc(OC)c1OC [4c, (Z)-3–(6-bromo-1H-indol-3-yl)-2-fluoro-1–(3,4,5-trimethoxyphenyl)prop-2-en-1-one]",IC50,[1],25 ± 1 nM
same,IC50,[2],1050 ± 220 nM
same,IC50,[3],680 ± 220 nM
same,IC50,[4],1210 ± 17 nM
same,Effect on tubulin polymerisation in vitro,[5],exhibited a similar action to that of colchicine
same,Cyclin B1 expression,[6],caused a decrease in Cyclin B1
same,P21 expression,[6],increased the expression of tumour suppressor protein P21
same,phosphorylation levels of Cdc2,[6],decrease the phosphorylation levels of Cdc2 in a concentration-dependent manner
same,percentage of apoptotic cells,[7]; 18 nM (lowest dose),19.12%
same,percentage of apoptotic cells,[7]; 72 nM (highest dose),57.99%
same,FITC-A+ (ratio of DCF positive cells),[8],93.6%
same,embryo development and blood vessels,[9]; dose ≥ 5 µM,marked delay in development and only scattered or fragmentary blood vessels were observed
same,lowest dose with anti-angiogenic phenotype,[9]; imaged at 30hpf,2.5 µM
same,number and length of intersegmental vessels (ISVs),"[9]; imaged at 30hpf, different doses",all dose-dependently reduced

# Source: publication PMC8741257, “Identification of novel non-toxic and anti-angiogenic α-fluorinated chalcones as potent colchicine binding site inhibitors” (Journal of Enzyme Inhibition and Medicinal Chemistry, 2022)
